Holding throughout (test): relative viability (nuclei count vs DMSO), 5 days (fraction); higher = more cells survive
Compound in the assay “Bromopyruvate + OSI-027”: C(C(=O)C(=O)O)Br [Bromopyruvate] + COc1cccc2cc(-c3nc([C@H]4CC[C@H](C(=O)O)CC4)n4ncnc(N)c34)[nH]c12 [OSI-027] (partner 0.5 µM)
The method in brief: (§1)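 Cells from lung cancer lines were seeded into 1536-well plates and, one day later, dosed by pin tool. Treatments were either a single drug or a fixed dose of an anchor drug with five library-drug doses (not always all listed) in √10 steps. After 5 days, nuclei were stained in a one-step fixation (final 0.05% Triton X-100, 1% formaldehyde, 1 ug/ml Hoechst) and counted on 4× images, and relative viability is the treated-to-vehicle nuclei ratio, as the median of duplicate plates.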

Compound in assay [1]: C(C(=O)C(=O)O)Br [Bromopyruvate] + Cc1cc(Nc2cc(N3CCN(C)CC3)nc(Sc3ccc(NC(=O)C4CC4)cc3)n2)n[nH]1 [Tozasertib] (partner 0.1 µM)
The method in brief:
as §1

Compound in the assay “Bromopyruvate + AZD7762”: C(C(=O)C(=O)O)Br [Bromopyruvate] + NC(=O)Nc1cc(-c2cccc(F)c2)sc1C(=O)N[C@H]1CCCNC1 [AZD7762] (partner 0.2 µM)
In short, it runs like this: as §1

Compound in the assay “Bicalutamide + Alpelisib”: CC(O)(CS(=O)(=O)c1ccc(F)cc1)C(=O)Nc1ccc(C#N)c(C(F)(F)F)c1 [Bicalutamide] + Cc1nc(NC(=O)N2CCC[C@H]2C(N)=O)sc1-c1ccnc(C(C)(C)C(F)(F)F)c1 [Alpelisib] (partner 2 µM)
The method in brief:
as §1

For the cell line NCI-H1648, the relative viability with Bromopyruvate + OSI-027 (first compound 1 µM) amounted to 0.263; with Bromopyruvate + OSI-027 (first compound 3.162 µM), 0.263; with Bromopyruvate + OSI-027 (first compound 10 µM) it was 0.251; with Bromopyruvate + OSI-027 (first compound 31.62 µM) it was 0.25; with Bromopyruvate + OSI-027 (first compound 100 µM), 0.259; in assay [1] (first compound 1 µM) it was 0.514. Also, the relative viability in assay [1] (first compound 3.162 µM) is 0.573; in assay [1] (first compound 10 µM), 0.412; in assay [1] (first compound 31.62 µM) it was 0.522; in assay [1] (first compound 100 µM) it was 0.613; with Bromopyruvate + AZD7762 (first compound 1 µM) it was 0.671; in the assay with Bromopyruvate + AZD7762 (first compound 3.162 µM), 0.721. Moreover, the relative viability with Bromopyruvate + AZD7762 (first compound 10 µM) amounted to 0.713; with Bromopyruvate + AZD7762 (first compound 31.62 µM) it was 0.623; in the assay with Bromopyruvate + AZD7762 (first compound 100 µM), 0.551.

In the case of NCI-H1563, the relative viability in the assay with Bromopyruvate + OSI-027 (first compound 1 µM) was 0.747; with Bromopyruvate + OSI-027 (first compound 3.162 µM) it was 0.75; with Bromopyruvate + OSI-027 (first compound 10 µM), 0.758; with Bromopyruvate + OSI-027 (first compound 31.62 µM), 0.77; in the assay with Bromopyruvate + OSI-027 (first compound 100 µM) it was 0.763; with Bicalutamide + Alpelisib (first compound 0.08 µM) it was 0.944. Besides, the relative viability with Bicalutamide + Alpelisib (first compound 0.253 µM) is 0.95; with Bicalutamide + Alpelisib (first compound 0.8 µM), 0.897; with Bicalutamide + Alpelisib (first compound 2.53 µM), 0.779.

In the case of A549, the relative viability in the assay with Bicalutamide + Alpelisib (first compound 0.08 µM) was found to be 0.878; with Bicalutamide + Alpelisib (first compound 0.253 µM), 0.685; in the assay with Bicalutamide + Alpelisib (first compound 0.8 µM), 0.889; in the assay with Bicalutamide + Alpelisib (first compound 2.53 µM) it was 0.733.

As for NCI-H522, the relative viability with Bromopyruvate + OSI-027 (first compound 1 µM) was found to be 0.74; in the assay with Bromopyruvate + OSI-027 (first compound 3.162 µM), 0.715; with Bromopyruvate + OSI-027 (first compound 10 µM) it was 0.684; with Bromopyruvate + OSI-027 (first compound 31.62 µM), 0.718; with Bromopyruvate + OSI-027 (first compound 100 µM), 0.706; in assay [1] (first compound 1 µM), 0.616. Also, the relative viability was found to be 0.549 in assay [1] (first compound 3.162 µM); 0.547 in assay [1] (first compound 10 µM); 0.485 in assay [1] (first compound 31.62 µM); 0.391 in assay [1] (first compound 100 µM); 0.874 in the assay with Bromopyruvate + AZD7762 (first compound 1 µM); 0.861 in the assay with Bromopyruvate + AZD7762 (first compound 3.162 µM). In addition, the figures for the relative viability with Bromopyruvate + AZD7762 (first compound 10 µM), with Bromopyruvate + AZD7762 (first compound 31.62 µM) and in the assay with Bromopyruvate + AZD7762 (first compound 100 µM) were 0.821, 1.05 and 0.755, respectively.

As for NCI-H1623, the relative viability with Bromopyruvate + OSI-027 (first compound 1 µM) came to 0.495; with Bromopyruvate + OSI-027 (first compound 3.162 µM), 0.428; with Bromopyruvate + OSI-027 (first compound 10 µM), 0.46; with Bromopyruvate + OSI-027 (first compound 31.62 µM), 0.383; in the assay with Bromopyruvate + OSI-027 (first compound 100 µM) it was 0.399; in assay [1] (first compound 1 µM) it was 0.419. Besides, the relative viability in assay [1] (first compound 3.162 µM) worked out at 0.423; in assay [1] (first compound 10 µM), 0.527; in assay [1] (first compound 31.62 µM), 0.468; in assay [1] (first compound 100 µM) it was 0.369.

For the cell line SW 900, the relative viability is 0.589 in the assay with Bromopyruvate + OSI-027 (first compound 1 µM); 0.543 in the assay with Bromopyruvate + OSI-027 (first compound 3.162 µM); 0.558 with Bromopyruvate + OSI-027 (first compound 10 µM); 0.562 with Bromopyruvate + OSI-027 (first compound 31.62 µM); 0.526 with Bromopyruvate + OSI-027 (first compound 100 µM); 0.54 in assay [1] (first compound 1 µM). In addition, the relative viability in assay [1] (first compound 3.162 µM) was found to be 0.455; in assay [1] (first compound 10 µM), 0.44; in assay [1] (first compound 31.62 µM), 0.564; in assay [1] (first compound 100 µM), 0.514; in the assay with Bromopyruvate + AZD7762 (first compound 1 µM), 0.629; with Bromopyruvate + AZD7762 (first compound 3.162 µM), 0.528. Also, the relative viability with Bromopyruvate + AZD7762 (first compound 10 µM) came to 0.519; in the assay with Bromopyruvate + AZD7762 (first compound 31.62 µM), 0.564; with Bromopyruvate + AZD7762 (first compound 100 µM) it was 0.66.

With IA-LM, the relative viability with Bicalutamide + Alpelisib (first compound 0.08 µM) was determined as 0.801; in the assay with Bicalutamide + Alpelisib (first compound 0.253 µM), 0.793; with Bicalutamide + Alpelisib (first compound 0.8 µM), 0.964; in the assay with Bicalutamide + Alpelisib (first compound 2.53 µM), 0.782.

For the cell line EBC-1, the relative viability came out at 0.885 with Bicalutamide + Alpelisib (first compound 0.08 µM), 0.845 with Bicalutamide + Alpelisib (first compound 0.253 µM), 0.828 with Bicalutamide + Alpelisib (first compound 0.8 µM) and 0.776 with Bicalutamide + Alpelisib (first compound 2.53 µM).
